# Data published in patent US12077503B2, “Substituted cyclic amides and their use as herbicides” (FMC CORPORATION, priority 2015, dated 2024).
# Legend:
# Type in all cases: in vivo
# [1] = test system: rice (Oryra sativa); assay: Test B flooded paddy test; details: Oryza sativa, 250 g ai/ha, Flood; 0 to 100 scale where 0 is no effect and 100 is complete control; read-out: Rice plant response rating
# Method in brief: (§1)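 Visual ratings (0 none to 100 complete control) are relative to untreated plants, taken 13–15 d after treatment in a greenhouse. Test material went straight into floodwater standing 3 cm above the soil, kept constant, on plants at the 2-leaf stage.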
# [2] = test system: ducksalad (Heteranthera limosa); assay: Test B flooded paddy test; details: Heteranthera limosa, 250 g ai/ha, Flood; 0 to 100 scale where 0 is no effect and 100 is complete control; read-out: Ducksalad plant response rating
# Method in brief: as §1
# [3] = test system: sedge, umbrella (small-flower umbrella sedge, Cyperus difformis); assay: Test B flooded paddy test; details: Cyperus difformis, 250 g ai/ha, Flood; 0 to 100 scale where 0 is no effect and 100 is complete control; read-out: Sedge, Umbrella plant response rating
# Method in brief: as §1
# [4] = test system: barnyardgrass (Echinochloa crus-galli); assay: Test B flooded paddy test; details: Echinochloa crus-galli, 250 g ai/ha, Flood; 0 to 100 scale where 0 is no effect and 100 is complete control; read-out: Barnyardgrass plant response rating
# Method in brief: as §1
# [5] = test system: wheat (Triticum aestivum); assay: Test A postemergence; details: Triticum aestivum, post-emergence, 240 h
# Method in brief: (§2)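 Ratings of 0 (no effect) to 100 (complete control) come from visual comparison with untreated controls roughly 10 d after treatment. Test chemicals, formulated in a non-phytotoxic solvent mixture with surfactant, were applied either as a preemergence directed soil spray on seeded soil or postemergence to one- to two-leaf plants 2 to 10 cm tall.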
# [6] = test system: giant foxtail (Setaria faberii); assay: Test A postemergence; details: Setaria faberi, post-emergence, 240 h
# Method in brief: as §2
# [7] = test system: corn (Zea mays); assay: Test A postemergence; details: Zea mays, post-emergence, 240 h
# Method in brief: as §2
# [8] = test system: ragweed (common ragweed, Ambrosia elatior); assay: Test A postemergence; details: Ambrosia artemisiifolia, post-emergence, 240 h
# Method in brief: as §2
# [9] = test system: Galium (catchweed bedstraw, Galium aparine); assay: Test A postemergence; details: Galium, post-emergence, 240 h
# Method in brief: as §2
# [10] = test system: ryegrass, Italian (Italian ryegrass, Lolium multiflorum); assay: Test A postemergence; details: Lolium multiflorum, post-emergence, 240 h
# Method in brief: as §2
# [11] = test system: Kochia (Kochia scoparia); assay: Test A postemergence; details: Bassia scoparia, post-emergence, 240 h
# Method in brief: as §2
# [12] = test system: blackgrass (Alopecurus myosuroides); assay: Test A postemergence; details: Alopecurus myosuroides, post-emergence, 240 h
# Method in brief: as §2
# [13] = test system: barnyardgrass (Echinochloa crus-galli); assay: Test A postemergence; details: Echinochloa crus-galli, post-emergence, 240 h
# Method in brief: as §2
# [14] = test system: pigweed (Amaranthus retroflexus); assay: Test A postemergence; details: Amaranthus retroflexus, post-emergence, 240 h
# Method in brief: as §2
# [15] = test system: giant foxtail (Setaria faberii); assay: Test A preemergence; details: Setaria faberi, pre-emergence, 240 h, 0 to 100 scale where 0 is no effect and 100 is complete control, read-out: Foxtail, Giant plant response rating
# Method in brief: as §2
# [16] = test system: ragweed (common ragweed, Ambrosia elatior); assay: Test A preemergence; details: Ambrosia artemisiifolia, pre-emergence, 240 h, 0 to 100 scale where 0 is no effect and 100 is complete control, read-out: Ragweed plant response rating
# Method in brief: as §2
# [17] = test system: ryegrass, Italian (Italian ryegrass, Lolium multiflorum); assay: Test A preemergence; details: Lolium multiflorum, pre-emergence, 240 h, 0 to 100 scale where 0 is no effect and 100 is complete control, read-out: Ryegrass, Italian plant response rating
# Method in brief: as §2
# [18] = test system: Kochia (Kochia scoparia); assay: Test A preemergence; details: Bassia scoparia, pre-emergence, 240 h, 0 to 100 scale where 0 is no effect and 100 is complete control, read-out: Kochia plant response rating
# Method in brief: as §2
# [19] = test system: barnyardgrass (Echinochloa crus-galli); assay: Test A preemergence; details: Echinochloa crus-galli, pre-emergence, 240 h, 0 to 100 scale where 0 is no effect and 100 is complete control, read-out: Barnyardgrass plant response rating
# Method in brief: as §2
# [20] = test system: pigweed (Amaranthus retroflexus); assay: Test A preemergence; details: Amaranthus retroflexus, pre-emergence, 240 h, 0 to 100 scale where 0 is no effect and 100 is complete control, read-out: Pigweed plant response rating
# [21] = 125 g ai/ha, preemergence, approx. 10 d
smiles,measurement,setting,value
CN1C[C@H](c2csc3c2CCC3)[C@@H](C(=O)Nc2ccccc2S(C)(=O)=O)C1=O [Compound 1082],pest or weed control at 250 g/ha,[1],35%
same,pest or weed control at 250 g/ha,[2],70%
same,pest or weed control at 250 g/ha,[3],0%
same,pest or weed control at 250 g/ha,[4],0%
same,plant injury at 125 g/ha,"[5]; 125 g ai/ha, postemergence, visual injury on 0 to 100 scale (0 no effect, 100 complete control), approx. 10 d, read-out: Wheat plant response rating",0%
same,plant injury at 31 g/ha,"[5]; Postemergence, 31 g ai/ha, visual injury after approx. 10 d, 0 to 100 scale, 0 no effect, 100 complete control, read-out: Plant response rating, Wheat",0%
same,pest or weed control at 125 g/ha,"[6]; 125 g ai/ha, postemergence, visual injury on 0 to 100 scale (0 no effect, 100 complete control), approx. 10 d, read-out: Foxtail, Giant plant response rating",0%
same,pest or weed control at 31 g/ha,"[6]; Postemergence, 31 g ai/ha, visual injury after approx. 10 d, 0 to 100 scale, 0 no effect, 100 complete control, read-out: Plant response rating, Foxtail, Giant",0%
same,plant injury at 125 g/ha,"[7]; 125 g ai/ha, postemergence, visual injury on 0 to 100 scale (0 no effect, 100 complete control), approx. 10 d, read-out: Corn plant response rating",30%
same,"Corn plant response rating (crop injury, 0 = no effect, 100 = complete kill) at 31 g/ha","[7]; Postemergence, 31 g ai/ha, visual injury after approx. 10 d, 0 to 100 scale, 0 no effect, 100 complete control",0%
same,pest or weed control at 125 g/ha,"[8]; 125 g ai/ha, postemergence, visual injury on 0 to 100 scale (0 no effect, 100 complete control), approx. 10 d, read-out: Ragweed plant response rating",0%
same,pest or weed control at 31 g/ha,"[8]; Postemergence, 31 g ai/ha, visual injury after approx. 10 d, 0 to 100 scale, 0 no effect, 100 complete control, read-out: Plant response rating, Ragweed",0%
same,pest or weed control at 125 g/ha,"[9]; 125 g ai/ha, postemergence, visual injury on 0 to 100 scale (0 no effect, 100 complete control), approx. 10 d, read-out: Galium plant response rating",0%
same,pest or weed control at 31 g/ha,"[9]; Postemergence, 31 g ai/ha, visual injury after approx. 10 d, 0 to 100 scale, 0 no effect, 100 complete control, read-out: Plant response rating, Galium",0%
same,pest or weed control at 125 g/ha,"[10]; 125 g ai/ha, postemergence, visual injury on 0 to 100 scale (0 no effect, 100 complete control), approx. 10 d, read-out: Ryegrass, Italian plant response rating",0%
same,pest or weed control at 31 g/ha,"[10]; Postemergence, 31 g ai/ha, visual injury after approx. 10 d, 0 to 100 scale, 0 no effect, 100 complete control, read-out: Plant response rating, Ryegrass, Italian",0%
same,pest or weed control at 125 g/ha,"[11]; 125 g ai/ha, postemergence, visual injury on 0 to 100 scale (0 no effect, 100 complete control), approx. 10 d, read-out: Kochia plant response rating",0%
same,pest or weed control at 31 g/ha,"[11]; Postemergence, 31 g ai/ha, visual injury after approx. 10 d, 0 to 100 scale, 0 no effect, 100 complete control, read-out: Plant response rating, Kochia",0%
same,pest or weed control at 125 g/ha,"[12]; 125 g ai/ha, postemergence, visual injury on 0 to 100 scale (0 no effect, 100 complete control), approx. 10 d, read-out: Blackgrass plant response rating",0%
same,pest or weed control at 31 g/ha,"[12]; Postemergence, 31 g ai/ha, visual injury after approx. 10 d, 0 to 100 scale, 0 no effect, 100 complete control, read-out: Plant response rating, Blackgrass",0%
same,pest or weed control at 125 g/ha,"[13]; 125 g ai/ha, postemergence, visual injury on 0 to 100 scale (0 no effect, 100 complete control), approx. 10 d, read-out: Barnyardgrass plant response rating",30%
same,pest or weed control at 31 g/ha,"[13]; Postemergence, 31 g ai/ha, visual injury after approx. 10 d, 0 to 100 scale, 0 no effect, 100 complete control, read-out: Plant response rating, Barnyardgrass",0%
same,pest or weed control at 125 g/ha,"[14]; 125 g ai/ha, postemergence, visual injury on 0 to 100 scale (0 no effect, 100 complete control), approx. 10 d, read-out: Pigweed plant response rating",0%
same,pest or weed control at 31 g/ha,"[14]; Postemergence, 31 g ai/ha, visual injury after approx. 10 d, 0 to 100 scale, 0 no effect, 100 complete control, read-out: Plant response rating, Pigweed",0%
same,pest or weed control at 31 g/ha,"[15]; 31 g ai/ha, Preemergence",0%
same,pest or weed control at 125 g/ha,[15]; [21],0%
same,pest or weed control at 31 g/ha,"[16]; 31 g ai/ha, Preemergence",0%
same,pest or weed control at 125 g/ha,[16]; [21],0%
same,pest or weed control at 31 g/ha,"[17]; 31 g ai/ha, Preemergence",0%
same,pest or weed control at 125 g/ha,[17]; [21],0%
same,pest or weed control at 31 g/ha,"[18]; 31 g ai/ha, Preemergence",0%
same,pest or weed control at 125 g/ha,[18]; [21],0%
same,pest or weed control at 31 g/ha,"[19]; 31 g ai/ha, Preemergence",0%
same,pest or weed control at 125 g/ha,[19]; [21],0%
same,pest or weed control at 31 g/ha,"[20]; 31 g ai/ha, Preemergence",0%
same,pest or weed control at 125 g/ha,[20]; [21],0%
